Assays:
Assay type in all cases: in vivo
Conditions in all cases: scale 0 to 100, 0 is no effect, 100 is complete control
[1] = system: velvetleaf (Abutilon theophrasti); assay: Test C preemergence
Outline: (§1)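 Greenhouse herbicidal screen with visual scoring 13–15 days after application. Ratings run from 0 (no effect) to 100 (complete control), relative to untreated controls.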

[2] = system: ragweed (common ragweed, Ambrosia elatior); assay: Test C preemergence
Outline: as §1

[3] = system: soybean (Glycine max); assay: Test C preemergence
Outline: as §1

[4] = system: waterhemp (common waterhemp, Amaranthus rudis); assay: Test C preemergence
Outline: as §1

[5] = system: giant foxtail (Setaria faberii); assay: Test C preemergence
Outline: as §1

[6] = system: lambsquarters (Chenopodium album); assay: Test C preemergence
Outline: as §1

[7] = system: yellow nutsedge (Cyperus esculentus); assay: Test C preemergence
Outline: as §1

[8] = system: johnsongrass (Sorghum halepense); assay: Test C preemergence
Outline: as §1

[9] = system: Italian ryegrass (Lolium multiflorum); assay: Test C preemergence
Outline: as §1

[10] = system: pigweed (Amaranthus retroflexus); assay: Test C preemergence
Outline: as §1

[11] = system: velvetleaf (Abutilon theophrasti); assay: Test C postemergence
Description: (§2) Seeds of plant species selected from blackgrass (Alopecurus myosuroides), Italian ryegrass (Lolium multiflorum), winter wheat (Triticum aestivum), galium (catchweed bedstraw, Galium aparine), corn (Zea mays), large (Lg) crabgrass (Digitaria sanguinalis), giant foxtail (Setaria faberii), johnsongrass (Sorghum halepense), lambsquarters (Chenopodium album), morningglory (Ipomoea coccinea), yellow nutsedge (Cyperus esculentus), pigweed (Amaranthus retroflexus), ragweed (common ragweed, Ambrosia elatior), soybean (Glycine max), barnyardgrass (Echinochloa crus-galli), oilseed rape (Brassica napus), waterhemp (common waterhemp, Amaranthus rudis), and velvetleaf (Abutilon theophrasti) were planted into a blend of loam soil and sand and treated preemergence with test chemicals formulated in a non-phytotoxic solvent mixture which included a surfactant. At the same time, plants selected from these crop and weed species and also chickweed (common chickweed, Stellaria media), kochia (Kochia scoparia), and wild oat (Avena fatua), were planted in pots containing Sunshine Redi-Earth® planting medium comprising spaghnum peat moss, vermiculite, starter nutrients and dolomitic limestone and treated with postemergence applications of test chemicals formulated in the same manner. Plants ranged in height from 2 to 18 cm (1- to 4-leaf stage) for postemergence treatments. Treated plants and controls were maintained in a greenhouse for 13 to 15 days, after which time all species were compared to controls and visually evaluated. Plant response ratings, summarized in Table C, are based on a scale of 0 to 100 where 0 is no effect and 100 is complete control. A dash (-) response means no test result.

[12] = system: ragweed (common ragweed, Ambrosia elatior); assay: Test C postemergence
Description: as §2

[13] = system: galium (catchweed bedstraw, Galium aparine); assay: Test C postemergence
Description: as §2

[14] = system: kochia (Kochia scoparia); assay: Test C postemergence
Description: as §2

[15] = system: soybean (Glycine max); assay: Test C postemergence
Description: as §2

[16] = system: large (Lg) crabgrass (Digitaria sanguinalis); assay: Test C postemergence
Description: as §2

[17] = system: waterhemp (common waterhemp, Amaranthus rudis); assay: Test C postemergence
Description: as §2

[18] = system: giant foxtail (Setaria faberii); assay: Test C postemergence
Description: as §2

[19] = system: lambsquarters (Chenopodium album); assay: Test C postemergence
Description: as §2

[20] = system: johnsongrass (Sorghum halepense); assay: Test C postemergence
Description: as §2

[21] = system: Italian ryegrass (Lolium multiflorum); assay: Test C postemergence
Description: as §2

[22] = system: winter wheat (Triticum aestivum); assay: Test C postemergence
Description: as §2

[23] = system: wild oat (Avena fatua); assay: Test C postemergence
Description: as §2

O=c1cccc(Oc2ncc(Cl)cn2)n1-c1ncc(Cl)cn1 [Compound 6]
55: Plant response rating, Pigweed ([10]; 16 g ai/ha)
75: Plant response rating, Soybean ([3]; 125 g ai/ha) | Plant response rating, Waterhemp ([4]; 16 g ai/ha) | Plant response rating, Pigweed ([10]; 31 g ai/ha) | Plant response rating, Velvetleaf ([11]; 62 g ai/ha) | Plant response rating, Velvetleaf ([11]; 125 g ai/ha) | Plant response rating, Waterhemp ([17]; 31 g ai/ha)
60: Plant response rating, Galium ([13]; 31 g ai/ha) | Plant response rating, Galium ([13]; 62 g ai/ha) | Plant response rating, Kochia ([14]; 31 g ai/ha) | Plant response rating, Soybean ([15]; 62 g ai/ha) | Plant response rating, Waterhemp ([17]; 16 g ai/ha)
10: Plant response rating, Velvetleaf ([1]; 16 g ai/ha) | Plant response rating, Soybean ([3]; 16 g ai/ha) | Plant response rating, Johnsongrass ([8]; 125 g ai/ha) | Plant response rating, Foxtail, Giant ([18]; 125 g ai/ha)
65: Plant response rating, Lambsquarters ([6]; 62 g ai/ha) | Plant response rating, Velvetleaf ([11]; 31 g ai/ha) | Plant response rating, Lambsquarters ([19]; 62 g ai/ha)
0: Plant response rating, Foxtail, Giant ([5]; 16 g ai/ha) | Plant response rating, Nutsedge, Yellow ([7]; 16 g ai/ha) | Plant response rating, Nutsedge, Yellow ([7]; 31 g ai/ha) | Plant response rating, Nutsedge, Yellow ([7]; 62 g ai/ha) | Plant response rating, Johnsongrass ([8]; 16 g ai/ha) | Plant response rating, Johnsongrass ([8]; 31 g ai/ha) | Plant response rating, Ryegrass, Italian ([9]; 16 g ai/ha) | Plant response rating, Johnsongrass ([20]; 16 g ai/ha) | Plant response rating, Ryegrass, Italian ([21]; 16 g ai/ha) | Plant response rating, Ryegrass, Italian ([21]; 31 g ai/ha) | Plant response rating, Ryegrass, Italian ([21]; 62 g ai/ha) | Plant response rating, Ryegrass, Italian ([21]; 125 g ai/ha) | Plant response rating, Wheat ([22]; 16 g ai/ha) | Plant response rating, Wheat ([22]; 31 g ai/ha) | Plant response rating, Wheat ([22]; 62 g ai/ha) | Plant response rating, Wheat ([22]; 125 g ai/ha) | Plant response rating, Oat, Wild ([23]; 16 g ai/ha) | Plant response rating, Oat, Wild ([23]; 31 g ai/ha) | Plant response rating, Oat, Wild ([23]; 62 g ai/ha) | Plant response rating, Oat, Wild ([23]; 125 g ai/ha)
40: Plant response rating, Velvetleaf ([1]; 62 g ai/ha) | Plant response rating, Lambsquarters ([6]; 16 g ai/ha) | Plant response rating, Ragweed ([12]; 62 g ai/ha) | Plant response rating, Soybean ([15]; 16 g ai/ha)
35: Plant response rating, Lambsquarters ([19]; 31 g ai/ha)
5: Plant response rating, Foxtail, Giant ([5]; 31 g ai/ha) | Plant response rating, Nutsedge, Yellow ([7]; 125 g ai/ha) | Plant response rating, Johnsongrass ([8]; 62 g ai/ha) | Plant response rating, Ryegrass, Italian ([9]; 31 g ai/ha) | Plant response rating, Ryegrass, Italian ([9]; 62 g ai/ha) | Plant response rating, Ryegrass, Italian ([9]; 125 g ai/ha) | Plant response rating, Crabgrass, Large ([16]; 16 g ai/ha) | Plant response rating, Crabgrass, Large ([16]; 62 g ai/ha) | Plant response rating, Foxtail, Giant ([18]; 16 g ai/ha) | Plant response rating, Foxtail, Giant ([18]; 31 g ai/ha) | Plant response rating, Foxtail, Giant ([18]; 62 g ai/ha) | Plant response rating, Johnsongrass ([20]; 31 g ai/ha) | Plant response rating, Johnsongrass ([20]; 62 g ai/ha) | Plant response rating, Johnsongrass ([20]; 125 g ai/ha)
100: Plant response rating, Waterhemp ([4]; 62 g ai/ha) | Plant response rating, Waterhemp ([4]; 125 g ai/ha) | Plant response rating, Foxtail, Giant ([5]; 125 g ai/ha) | Plant response rating, Pigweed ([10]; 125 g ai/ha)
85: Plant response rating, Ragweed ([2]; 125 g ai/ha) | Plant response rating, Lambsquarters ([6]; 125 g ai/ha) | Plant response rating, Kochia ([14]; 125 g ai/ha)
25: Plant response rating, Velvetleaf ([1]; 31 g ai/ha) | Plant response rating, Ragweed ([2]; 16 g ai/ha) | Plant response rating, Ragweed ([2]; 31 g ai/ha) | Plant response rating, Ragweed ([12]; 16 g ai/ha)
50: Plant response rating, Velvetleaf ([11]; 16 g ai/ha) | Plant response rating, Galium ([13]; 16 g ai/ha) | Plant response rating, Kochia ([14]; 16 g ai/ha)
80: Plant response rating, Velvetleaf ([1]; 125 g ai/ha) | Plant response rating, Galium ([13]; 125 g ai/ha) | Plant response rating, Kochia ([14]; 62 g ai/ha)
70: Plant response rating, Ragweed ([2]; 62 g ai/ha) | Plant response rating, Foxtail, Giant ([5]; 62 g ai/ha) | Plant response rating, Ragweed ([12]; 125 g ai/ha) | Plant response rating, Soybean ([15]; 125 g ai/ha) | Plant response rating, Waterhemp ([17]; 62 g ai/ha) | Plant response rating, Waterhemp ([17]; 125 g ai/ha) | Plant response rating, Lambsquarters ([19]; 125 g ai/ha)
90: Plant response rating, Waterhemp ([4]; 31 g ai/ha) | Plant response rating, Pigweed ([10]; 62 g ai/ha)
15: Plant response rating, Crabgrass, Large ([16]; 31 g ai/ha)
20: Plant response rating, Soybean ([3]; 31 g ai/ha) | Plant response rating, Crabgrass, Large ([16]; 125 g ai/ha) | Plant response rating, Lambsquarters ([19]; 16 g ai/ha)
30: Plant response rating, Lambsquarters ([6]; 31 g ai/ha)
45: Plant response rating, Ragweed ([12]; 31 g ai/ha) | Plant response rating, Soybean ([15]; 31 g ai/ha)
